Experimental data: patent publication US20070207104A1, “Antimicrobial esters” (priority 2006, published 2007)
Like-named read-outs stand apart in the source and are kept apart here.

Columns and labels:
[1] = test system: Fungi: Candida albicans, Asperillus niger and Penicillium notatum; assay: Minimal inhibitory concentration, agar dilution (Mueller-Hinton), fungi; type: cell-based
Description: (§1) The minimal inhibitory concentration of the composition was determined based on methods as described in the United States Pharmacopiea, National Formulary (“USP, NF”), NF 18, 1995, Microbial Assays and Journal of Applied Microbiology 89(2): 275-279 by testing microorganisms for their ability to produce visible growth on a series of agar plates containing dilutions of the composition. Mueller-Hinton is the agar medium used in these studies. Dilutions of materials to be tested were made directly into warm molten agar as described below to achieve the final concentration range (0-6%) shown in the Tables below.
(§2) Agar was prepared as recommended by the manufacturer. Sterilized agar was allowed to cool to 50° C. in a water bath and dispensing an appropriate amount into sterile containers. The agent being tested was added to the agar and thoroughly mixed. Plates were then poured and allowed to solidify at room temperature. All plates were used immediately and not stored.
(§3) Broth cultures (24 hours) were adjusted photometrically to give 10^7 CFU/ml (colony forming units/ml) and the plates were inoculated within 30 minutes of standardizing the inoculum. A standard inoculating loop was used to deliver and spread the inoculum on the plates. Plates were allowed to dry at room temperature before inverting and incubation. Bacterial plates were incubated at 35° C. for 48 hours while fungal plates were incubated at 25° C. for 72 hours. All plates were visually inspected immediately following incubation and the results recorded.
(§4) The organisms tested were the following: Gram-positive bacteria: Staphylococcus aureus, and Bacillus subtilis; Gram-negative bacteria: Escherichia coli and Pseudomonas aeruginosa; and Fungi: Candida albicans, Asperillus niger and Penicillium notatum.
(§5) The effects of the structure of the polyhydric alcohol, the structure of the carboxylic acid and the extent of alkoxylation on antimicrobial activity were determined using the MIC assay as described in Example 1. The results below are expressed as the concentration (%) of agent corresponding to the MIC for each group of organisms tested.

[2] = test system: Gram-negative bacteria: Escherichia coli and Pseudomonas aeruginosa; assay: Minimal inhibitory concentration, agar dilution (Mueller-Hinton), Gram-negative bacteria; type: cell-based; conditions: for Minimum Inhibitory Concentration (MIC): Gram Negative Bacteria Escherichia coli, Pseudomonas aeruginosa; for visible growth on agar plates: Gram Negative Organisms, concentration 0.3 %
Description: as §1, §2, §3, §4, §5

[3] = test system: Gram-positive bacteria: Staphylococcus aureus, and Bacillus subtilis; assay: Minimal inhibitory concentration, agar dilution (Mueller-Hinton), Gram-positive bacteria; type: cell-based; conditions: for Minimum Inhibitory Concentration (MIC): Gram Positive Bacteria Staphylococcus aureus, Staphlyococcus epidermidis, Bacillus subtilis; for visible growth on agar plates: Gram Positive Organisms, concentration 0.3 %
Description: Mueller-Hinton is the agar medium used in these studies. Dilutions of materials to be tested were made directly into warm molten agar as described below to achieve the final concentration range (0-6%) shown in the Tables below.
as §2
as §3, with “A” for “Broth cultures (24 hours) were adjusted photometrically to give 10^7 CFU/ml (colony forming units/ml) and the plates were inoculated within 30 minutes of standardizing the inoculum. A”
as §4
The results below are expressed as the concentration (%) of agent corresponding to the MIC for each group of organisms tested.

[4] = Solubility in water / oil; type: physicochemical
[5] = Safety testing: neat material on forearm of human volunteers under occlusive conditions for 48 hours; type: in vivo; parameters: key to dermal response score (6-point scale): 0=No evidence of any effect; +=Barely perceptible (Minimal, faint, uniform or spotty erythema); 1=Mild (Pink, uniform erythema covering most of the contact site); 2=Moderate (Pink-red erythema uniform in the entire contact site); 3=Marked (Bright re erythema with/without petechiae or papules); 4=Severe (Deep red erythema with/without vesiculation or weeping)
Description: The safety of G-18-O was tested using the neat (undiluted) material applied to the forearm of 51 human volunteers under occlusive conditions for 48 hours. These conditions are particularly aggressive, especially when compared with those in the prior art, where data on safety, if disclosed at all, is generally anecdotal using low concentrations of the agent. The dermal responses for G-18-O were scored by expert evaluators under clinical conditions according to the following 6-point scale: • 0=No evidence of any effect; • +=Barely perceptible (Minimal, faint, uniform or spotty erythema); • 1=Mild (Pink, uniform erythema covering most of the contact site); • 2=Moderate (Pink-red erythema uniform in the entire contact site); • 3=Marked (Bright re erythema with/without petechiae or papules); and • 4=Severe (Deep red erythema with/without vesiculation or weeping).

[6] = test system: Gram-positive and Gram-negative organisms as well as fungi; assay: Antimicrobial activity in the MIC assay, all groups of organisms tested; type: cell-based
Description: as §1, §2
as §3, with “recorded. […]” for “recorded.”
as §5

HLB value = type: physicochemical

Question: Which results are given for Glycereth-20 Ethylhexanoate?
Answer: Minimum Inhibitory Concentration (MIC) [1]: 3%; Minimum Inhibitory Concentration (MIC) [2]: 3%; Minimum Inhibitory Concentration (MIC) [3]: 3%

Question: With Glycereth-18 Ethylhexanoate [G-18-O] as the compound, how does the water solubility [4] read?
Answer: The water solubility was “very water soluble”.

Question: And the water solubility ([4]; listed as G-18-0)?
Answer: The water solubility was “substantially water-soluble”.

Question: What about the water solubility ([4]; listed as Glycereth-18 ethylhexanoate) of the same compound?
Answer: The water solubility was “very water-soluble”.

Question: What about the “dermal response score (6-point scale)” value ([5]; forearm of 51 human volunteers, occlusive, all panelists) of the same compound?
Answer: The value was 0.

Question: And the skin irritation ([5]; intimate contact with skin, occlusive conditions)?
Answer: Its skin irritation is “totally non-irritating”.

Question: What about the antimicrobial activity [6] of the same compound?
Answer: Its antimicrobial activity is “effective antimicrobial agent”.

Question: And the antimicrobial activity ([6]; listed as G-18-0)?
Answer: The antimicrobial activity was “essentially equal to that of glyceryl caprylate”.

Question: What about the HLB value (HLB value) of the same compound?
Answer: Its HLB value is “greater than 10”.

Question: And the “Minimum Inhibitory Concentration (MIC)” value [1]?
Answer: Its value is 1.5%.

Question: And the “Minimum Inhibitory Concentration (MIC)” value [2]?
Answer: Its value is 0.6%.

Question: What about the “visible growth on agar plates” value [2] of the same compound?
Answer: Its value is 50%.

Question: What about the “Minimum Inhibitory Concentration (MIC)” value [3] of the same compound?
Answer: Its value is 0.6%.

Question: And the “visible growth on agar plates” value [3]?
Answer: Its value is 50%.

Question: Which results are given for Glycereth-7 Ethylhexanoate?
Answer: Minimum Inhibitory Concentration (MIC) [1]: 1.5%; Minimum Inhibitory Concentration (MIC) [2]: 3%; Minimum Inhibitory Concentration (MIC) [3]: 3%

Question: For Glycereth-40 Ethylhexanoate, which “Minimum Inhibitory Concentration (MIC)” value [1] is on record?
Answer: Its value is 1.5%.

Question: And the “Minimum Inhibitory Concentration (MIC)” value [2]?
Answer: Its value is 3%.

Question: What about the “Minimum Inhibitory Concentration (MIC)” value [3] of the same compound?
Answer: The value was 3%.

Question: For Glycereth-18 Pelargonate, which “Minimum Inhibitory Concentration (MIC)” value [1] is on record?
Answer: The value was 1.5%.

Question: And the “Minimum Inhibitory Concentration (MIC)” value [2]?
Answer: The value was “>=6%”.

Question: And the “Minimum Inhibitory Concentration (MIC)” value [3]?
Answer: The value was “>=6%”.

Question: Which results are given for Glycereth-18 Laurate?
Answer: Minimum Inhibitory Concentration (MIC) [1]: >=6%; Minimum Inhibitory Concentration (MIC) [2]: 0.6%; Minimum Inhibitory Concentration (MIC) [3]: 0.6%

Question: What does the source list for Glycereth-18 [reference compound]?
Answer: antimicrobial activity [6]: no activity; Minimum Inhibitory Concentration (MIC) [1]: >=6%; Minimum Inhibitory Concentration (MIC) [2]: >=6%; Minimum Inhibitory Concentration (MIC) [3]: >=6%

Question: Which oil solubility [4] does the source give for `CCCCCCCC(=O)OCC(O)CO` (centres unmarked) [Glyceryl Caprylate, reference compound] here?
Answer: The oil solubility was “substantially oil soluble”.

Question: And the “visible growth on agar plates” value [2]?
Answer: Its value is 50%.

Question: And the “visible growth on agar plates” value [3]?
Answer: Its value is 50%.

Question: With Propylene Glycol-18 Ethylhexanoate as the compound, how does the “Minimum Inhibitory Concentration (MIC)” value [1] read?
Answer: Its value is 1.5%.

Question: What about the “Minimum Inhibitory Concentration (MIC)” value [2] of the same compound?
Answer: Its value is “>=6%”.

Question: And the “Minimum Inhibitory Concentration (MIC)” value [3]?
Answer: The value was “>=6%”.

Question: What does the source list for Glycereth-18 Benzoate?
Answer: Minimum Inhibitory Concentration (MIC) [1]: >=6%; Minimum Inhibitory Concentration (MIC) [2]: 3%; Minimum Inhibitory Concentration (MIC) [3]: 3%
